Data taken from US20250332266A1, “COMPOUNDS FOR THE DEGRADATION OF EGFR KINASE” (BeiGene Switzerland GmbH, priority 2022, published 2025).

How the values were obtained:
[1] = biological target: EGFR Del19/T790M/C797S (H1975-clone #28) (Homo sapiens, UniProt P00533, T790M/C797S, form not given); test: EGFR degradation, HTRF total-EGFR assay, H1975-clone #28 (DTC); format: cell-based; settings: H1975-clone #28 Del19/T790M/C797S, 16 h treatment
Outline: (§1)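 H1975 clones with endogenous EGFR knocked out and homozygous exogenous EGFR mutants (#28 Del19/T790M/C797S; #25 L858R/T790M/C797S) treated 16 h at 37 °C, 8 doses, 5-fold from 10 μM, 0.2% DMSO. Total EGFR measured by HTRF on lysates, normalised to DMSO controls; DC50 and Dmax from curve fit.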

[2] = biological target: T1, EGFR L858R/T790M/C797S (H1975-clone #25) (Homo sapiens, UniProt P00533, C797S/L858R/T790M); test: EGFR degradation, HTRF total-EGFR assay, H1975-clone #25 (LTC); format: cell-based; settings: H1975-clone #25 L858R/T790M/C797S, 16 h treatment
T1 construct: expressed in transfected cells; host or cells: H1975 (clone #25), lentiviral transduction, endogenous EGFR knocked out
T1 sequence (P00533 25-1210 T790M/C797S/L858R): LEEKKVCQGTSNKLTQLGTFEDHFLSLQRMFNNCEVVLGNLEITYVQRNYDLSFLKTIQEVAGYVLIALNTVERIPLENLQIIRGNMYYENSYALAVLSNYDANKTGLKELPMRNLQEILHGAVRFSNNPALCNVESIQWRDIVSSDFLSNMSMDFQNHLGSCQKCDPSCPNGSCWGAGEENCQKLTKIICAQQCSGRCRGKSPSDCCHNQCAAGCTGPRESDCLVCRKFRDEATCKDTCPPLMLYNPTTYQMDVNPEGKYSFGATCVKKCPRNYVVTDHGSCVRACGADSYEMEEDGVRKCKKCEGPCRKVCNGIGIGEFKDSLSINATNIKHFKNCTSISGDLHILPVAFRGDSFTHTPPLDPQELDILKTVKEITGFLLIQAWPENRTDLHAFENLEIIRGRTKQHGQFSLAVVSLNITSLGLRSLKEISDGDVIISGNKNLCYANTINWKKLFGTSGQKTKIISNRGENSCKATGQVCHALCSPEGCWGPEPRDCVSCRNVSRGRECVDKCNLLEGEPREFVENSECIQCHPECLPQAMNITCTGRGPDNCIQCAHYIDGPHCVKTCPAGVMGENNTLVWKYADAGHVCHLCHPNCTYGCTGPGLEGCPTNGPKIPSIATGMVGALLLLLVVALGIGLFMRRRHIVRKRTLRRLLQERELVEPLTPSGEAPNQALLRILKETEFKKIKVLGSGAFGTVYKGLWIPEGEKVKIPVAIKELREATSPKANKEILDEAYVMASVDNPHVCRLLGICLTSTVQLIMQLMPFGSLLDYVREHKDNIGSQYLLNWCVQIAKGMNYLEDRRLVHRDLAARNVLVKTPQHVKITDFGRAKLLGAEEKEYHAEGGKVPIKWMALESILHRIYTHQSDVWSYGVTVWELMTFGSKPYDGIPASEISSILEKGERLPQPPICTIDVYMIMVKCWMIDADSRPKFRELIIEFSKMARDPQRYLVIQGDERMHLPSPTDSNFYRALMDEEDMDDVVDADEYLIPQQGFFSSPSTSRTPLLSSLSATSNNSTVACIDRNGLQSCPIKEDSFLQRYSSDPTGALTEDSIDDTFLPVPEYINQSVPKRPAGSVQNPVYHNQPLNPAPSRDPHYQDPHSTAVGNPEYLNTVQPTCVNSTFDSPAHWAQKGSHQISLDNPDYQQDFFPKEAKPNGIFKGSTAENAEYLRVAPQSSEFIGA
Outline: as §1

EGFR Del19/T790M/C797S (H1975-clone #28), sequence (P00533 with tags, fused parts or gaps DEL746-750/T790M/C797S, form open): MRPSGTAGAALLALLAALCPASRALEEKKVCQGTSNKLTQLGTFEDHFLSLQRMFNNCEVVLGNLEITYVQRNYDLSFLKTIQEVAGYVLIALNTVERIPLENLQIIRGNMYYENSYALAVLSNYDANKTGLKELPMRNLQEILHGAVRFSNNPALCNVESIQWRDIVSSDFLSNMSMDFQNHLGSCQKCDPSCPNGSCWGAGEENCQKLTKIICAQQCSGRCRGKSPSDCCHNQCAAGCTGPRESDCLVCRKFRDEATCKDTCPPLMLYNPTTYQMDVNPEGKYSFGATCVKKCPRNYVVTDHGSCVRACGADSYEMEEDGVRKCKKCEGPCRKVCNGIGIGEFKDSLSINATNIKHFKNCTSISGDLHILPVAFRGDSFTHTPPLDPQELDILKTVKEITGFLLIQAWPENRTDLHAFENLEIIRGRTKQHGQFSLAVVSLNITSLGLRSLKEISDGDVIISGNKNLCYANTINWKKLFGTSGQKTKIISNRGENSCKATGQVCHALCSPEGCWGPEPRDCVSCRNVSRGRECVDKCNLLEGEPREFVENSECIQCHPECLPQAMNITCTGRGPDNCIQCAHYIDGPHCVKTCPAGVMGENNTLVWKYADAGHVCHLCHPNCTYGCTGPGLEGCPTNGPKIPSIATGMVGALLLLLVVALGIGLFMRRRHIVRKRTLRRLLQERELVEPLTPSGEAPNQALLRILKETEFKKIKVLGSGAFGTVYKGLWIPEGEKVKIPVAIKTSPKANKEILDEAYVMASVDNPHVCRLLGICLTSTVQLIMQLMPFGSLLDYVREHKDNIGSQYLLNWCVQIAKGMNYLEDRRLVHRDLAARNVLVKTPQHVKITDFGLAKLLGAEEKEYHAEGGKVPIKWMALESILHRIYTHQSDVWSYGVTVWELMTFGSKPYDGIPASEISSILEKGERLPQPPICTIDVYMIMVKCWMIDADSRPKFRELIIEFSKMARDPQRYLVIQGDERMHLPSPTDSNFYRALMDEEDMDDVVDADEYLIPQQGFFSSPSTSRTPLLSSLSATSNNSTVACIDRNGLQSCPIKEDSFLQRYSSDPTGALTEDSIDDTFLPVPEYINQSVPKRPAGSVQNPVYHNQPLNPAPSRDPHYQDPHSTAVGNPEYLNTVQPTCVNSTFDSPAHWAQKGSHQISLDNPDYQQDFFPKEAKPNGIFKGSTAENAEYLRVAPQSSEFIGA

With `Cc1cc2cc(n1)-c1cnn(C)c1OC[C@H]1C[C@@H](CN3/C(=N/C2=O)Nc2ccc(N4CCC5(CCN(C6CCN(c7cc(F)c([C@H]8CCC(=O)NC8=O)c(F)c7)CC6)C5)C4)cc23)C1` (stereo partly drawn) [Example 129, (3R)-3-(4-(4-(7-((7^1s,7^3s,E)-1^1,2^6-dimethyl-3-oxo-5^2,5^3-dihydro-1^1H,5^1H-9-oxa-4-aza-5(2,1)-benzo[d]imidazola-2(2,4)-pyridina-1(4,5)-pyrazola-7(1,3)-cyclobutanacyclononaphane-5^6-yl)-2,7-diazaspiro[4.4]nonan-2-yl)piperidin-1-yl)-2,6-difluorophenyl)piperidine-2,6-dione] the “Degradation H1975 # 28 DTC” value [1] was 73.2 and the “Degradation H1975 # 25-LTC” value [2] was 72.7.
`Cc1cc2cc(n1)-c1cnn(C)c1OC[C@H]1C[C@@H](CN3/C(=N/C2=O)Nc2ccc(N4CCN(C5CCN(c6cc(F)c([C@H]7CCC(=O)NC7=O)c(F)c6)CC5)C(=O)C4)cc23)C1` [Example 25, (R)-3-(4-(4-(4-((7^1s,7^3s,E)-1^1,2^6-dimethyl-3-oxo-5^2,5^3-dihydro-1^1H,5^1H-9-oxa-4-aza-5(2,1)-benzo[d]imidazola-2(2,4)-pyridina-1(4,5)-pyrazola-7(1,3)-cyclobutanacyclononaphane-5^6-yl)-2-oxopiperazin-1-yl)piperidin-1-yl)-2,6-difluorophenyl)piperine-2,6-dione] was tested, and the “Degradation H1975 # 28 DTC” value [1] was 89.9 and the “Degradation H1975 # 25-LTC” value [2] was 83.4.
In the case of `COC[C@@H]1CN(c2ccc3c(c2)N2C[C@H]4C[C@@H](COc5c(cnn5C)-c5cc(cc(C)n5)C(=O)/N=C/2N3)C4)CCN1C1CCN(c2cnc(C3CCC(=O)NC3=O)cc2C)CC1` (stereo partly drawn) [Example 120, 3-(5-(4-((S)-4-((7^1s,7^3R,E)-1^1,2^6-dimethyl-3-oxo-5^2,5^3-dihydro-1^1H,5^1H-9-oxa-4-aza-5(2,1)-benzo[d]imidazola-2(2,4)-pyridina-1(4,5)-pyrazola-7(1,3)-cyclobutanacyclononaphane-5^6-yl)-2-(methoxymethyl)piperazin-1-yl)piperidin-1-yl)-4-methylpyridin-2-yl)piperidine-2,6-dione], the “Degradation H1975 # 28 DTC” value [1] is reported as 82.4 and the “Degradation H1975 # 25-LTC” value [2] is reported as 83.1.
With `Cc1cc2cc(n1)-c1cnn(C)c1OC[C@H]1C[C@@H](CN3/C(=N/C2=O)Nc2ccc(N4CCN(C5CCN(c6cc(F)c([C@H]7CCC(=O)NC7=O)c(F)c6)CC5)[C@@H](CO)C4)cc23)C1` [Example 31, (R)-3-(4-(4-((R)-4-((7^1s,7^3S,E)-1^1,2^6-dimethyl-3-oxo-5^2,5^3-dihydro-1^1H,5^1H-9-oxa-4-aza-5(2,1)-benzo[d]imidazola-2(2,4)-pyridina-1(4,5)-pyrazola-7(1,3)-cyclobutanacyclononaphane-5^6-yl)-2-(hydroxymethyl)piperazin-1-yl)piperidin-1-yl)-2,6-difluorophenyl)piperidine-2,6-dione] the “Degradation H1975 # 28 DTC” value [1] was 84.2 and the “Degradation H1975 # 25-LTC” value [2] was 90.5.
With `Cc1cc2cc(n1)-c1cnn(C)c1OC[C@H]1C[C@@H](CN3/C(=N/C2=O)Nc2ccc(N(C)C4CN(C5CCN(c6cnc(C7CCC(=O)NC7=O)cc6C)CC5)C4)cc23)C1` (stereo partly drawn) [Example 41, 3-(5-(4-(3-(((7^1s,7^3s,E)-1^1,2^6-dimethyl-3-oxo-5^2,5^3-dihydro-1^1H,5^1H-9-oxa-4-aza-5(2,1)-benzo[d]imidazola-2(2,4)-pyridina-1(4,5)-pyrazola-7(1,3)-cyclobutanacyclononaphane-5^6-yl)(methyl)amino)azetidin-1-yl)piperidin-1-yl)-4-methylpyridin-2-yl)piperidine-2,6-dione] the “Degradation H1975 # 28 DTC” value [1] was 80.1 and the “Degradation H1975 # 25-LTC” value [2] was 84.2.
For `Cc1cc2cc(n1)-c1cnn(C)c1OC[C@H]1C[C@@H](CN3/C(=N/C2=O)Nc2ccc(N4C5CCC4CN(C4CCN(c6ccc(C7CCC(=O)NC7=O)nc6C)CC4)C5)cc23)C1` (stereo partly drawn) [Example 127, 3-(5-(4-(8-((7^1s,7^3s,E)-1^1,2^6-dimethyl-3-oxo-5^2,5^3-dihydro-1^1H,5^1H-9-oxa-4-aza-5(2,1)-benzo[d]imidazola-2(2,4)-pyridina-1(4,5)-pyrazola-7(1,3)-cyclobutanacyclononaphane-5^6-yl)-3,8-diazabicyclo[3.2.1]octan-3-yl)piperidin-1-yl)-6-methylpyridin-2-yl)piperidine-2,6-dione], the “Degradation H1975 # 28 DTC” value [1] was 85.5 and the “Degradation H1975 # 25-LTC” value [2] was 96.0.
`COC[C@H]1CN(c2ccc3c(c2)N2C[C@H]4C[C@@H](COc5c(cnn5C)-c5cc(cc(C)n5)C(=O)/N=C/2N3)C4)CCN1C1CCN(c2cnc(C3CCC(=O)NC3=O)cc2C)CC1` (stereo partly drawn) [Example 23, 3-(5-(4-((R)-4-((7^1s,7^3S,E)-1^1,2^6-dimethyl-3-oxo-5^2,5^3-dihydro-1^1H,5^1H-9-oxa-4-aza-5(2,1)-benzo[d]imidazola-2(2,4)-pyridina-1(4,5)-pyrazola-7(1,3)-cyclobutanacyclononaphane-5^6-yl)-2-(methoxymethyl)piperazin-1-yl)piperidin-1-yl)-4-methylpyridin-2-yl)piperidine-2,6-dione] was tested, and the “Degradation H1975 # 28 DTC” value [1] was 87.0 and the “Degradation H1975 # 25-LTC” value [2] was 91.3.
With `Cc1cc2cc(n1)-c1cnn(C)c1OC[C@H]1C[C@@H](CN3/C(=N/C2=O)Nc2ccc(N4C5CCC4CN(C4CCN(c6cnc(C7CCC(=O)NC7=O)cc6C)CC4)C5)cc23)C1` (stereo partly drawn) [Example 130, 3-(5-(4-(8-((7^1s,7^3s,E)-1^1,2^6-dimethyl-3-oxo-5^2,5^3-dihydro-1^1H,5^1H-9-oxa-4-aza-5(2,1)-benzo[d]imidazola-2(2,4)-pyridina-1(4,5)-pyrazola-7(1,3)-cyclobutanacyclononaphane-5^6-yl)-3,8-diazabicyclo[3.2.1]octan-3-yl)piperidin-1-yl)-4-methylpyridin-2-yl)piperidine-2,6-dione] the “Degradation H1975 # 28 DTC” value [1] was 83.4 and the “Degradation H1975 # 25-LTC” value [2] was 90.7.
In the case of `Cc1cc2cc(n1)-c1cnn(C)c1OC[C@H]1C[C@@H](CN3/C(=N/C2=O)Nc2ccc(N4CCN(CC5CN(c6cnc(C7CCC(=O)NC7=O)cc6C)C5)C[C@@H]4C)cc23)C1` (stereo partly drawn) [Example 37, 3-(5-(3-(((S)-4-((7^1s,7^3R,E)-1^1,2^6-dimethyl-3-oxo-5^2,5^3-dihydro-1^1H,5^1H-9-oxa-4-aza-5(2,1)-benzo[d]imidazola-2(2,4)-pyridina-1(4,5)-pyrazola-7(1,3)-cyclobutanacyclononaphane-5^6-yl)-3-methylpiperazin-1-yl)methyl)azetidin-1-yl)-4-methylpyridin-2-yl)piperidine-2,6-dione], the “Degradation H1975 # 28 DTC” value [1] is reported as 79.4 and the “Degradation H1975 # 25-LTC” value [2] is reported as 80.7.
In the case of `Cc1cc2cc(n1)-c1cnn(C)c1OC[C@H]1C[C@@H](CN3/C(=N/C2=O)Nc2ccc(N(C)C4CC5(C4)CN(C4CCN(c6cc(F)c(C7CCC(=O)NC7=O)c(F)c6)CC4)C5)cc23)C1` (stereo partly drawn) [Example 136, (R)-3-(4-(4-(6-(((7^1s,7^3s,E)-1^1,2^6-dimethyl-3-oxo-5^2,5^3-dihydro-1^1H,5^1H-9-oxa-4-aza-5(2,1)-benzo[d]imidazola-2(2,4)-pyridina-1(4,5)-pyrazola-7(1,3)-cyclobutanacyclononaphane-5^6-yl)(methyl)amino)-2-azaspiro[3.3]heptan-2-yl)piperidin-1-yl)-2,6-difluorophenyl)piperidine-2,6-dione], the “Degradation H1975 # 28 DTC” value [1] is reported as 85.0 and the “Degradation H1975 # 25-LTC” value [2] is reported as 87.0.
`Cc1cc2cc(n1)-c1cnn(C)c1OC[C@H]1C[C@@H](CN3/C(=N/C2=O)Nc2ccc(N4CC[C@H](N5CCN(c6ccc(C7CCC(=O)NC7=O)nc6C)CC5)C(F)(F)C4)cc23)C1` (stereo partly drawn) [Example 122, 3-(5-(4-((S)-1-((7^1s,7^3R,E)-1^1,2^6-dimethyl-3-oxo-5^2,5^3-dihydro-1^1H,5^1H-9-oxa-4-aza-5(2,1)-benzo[d]imidazola-2(2,4)-pyridina-1(4,5)-pyrazola-7(1,3)-cyclobutanacyclononaphane-5^6-yl)-3,3-difluoropiperidin-4-yl)piperazin-1-yl)-6-methylpyridin-2-yl)piperidine-2,6-dione] was tested, and the “Degradation H1975 # 28 DTC” value [1] was 84.1 and the “Degradation H1975 # 25-LTC” value [2] was 90.9.
`Cc1cc2cc(n1)-c1cnn(C)c1OC[C@H]1C[C@@H](CN3/C(=N/C2=O)Nc2ccc(N4CCN([C@H]5CCN(c6cnc(C7CCC(=O)NC7=O)cc6C)C[C@H]5F)CC4)cc23)C1` (stereo partly drawn) [Example 134, 3-(5-((3R,4S)-4-(4-((7^1s,7^3R,E)-1^1,2^6-dimethyl-3-oxo-5^2,5^3-dihydro-1^1H,5′H-9-oxa-4-aza-5(2,1)-benzo[d]imidazola-2(2,4)-pyridina-1(4,5)-pyrazola-7(1,3)-cyclobutanacyclononaphane-5^6-yl)piperazin-1-yl)-3-fluoropiperidin-1-yl)-4-methylpyridin-2-yl)piperidine-2,6-dione] was tested, and the “Degradation H1975 # 28 DTC” value [1] was 89.6 and the “Degradation H1975 # 25-LTC” value [2] was 92.0.
